PubChem BioAssay (NCI)
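These data come from cells grown in 96-well plates and exposed to compound for 48 hours at five concentrations. GI50 = concentration required for 50% inhibition of growth. At the TGI there is no net growth.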

Legend:
Assay in all cases: NCI tumour cell line growth inhibition, 48 h
HCT-116 colon = tested on: HCT-116 colon
TK-10 renal = tested on: TK-10 renal
EKVX NSCLC = tested on: EKVX NSCLC
ACHN renal = tested on: ACHN renal
PC-3 prostate = tested on: PC-3 prostate
COLO 205 colon = tested on: COLO 205 colon
HCC-2998 colon = tested on: HCC-2998 colon
SK-MEL-5 melanoma = tested on: SK-MEL-5 melanoma
CAKI-1 renal = tested on: CAKI-1 renal
LOX IMVI melanoma = tested on: LOX IMVI melanoma

SMILES | GI50 (HCT-116 colon) | TGI (HCT-116 colon) | GI50 (TK-10 renal) | TGI (TK-10 renal) | GI50 (EKVX NSCLC) | TGI (EKVX NSCLC) | GI50 (ACHN renal) | TGI (ACHN renal) | GI50 (PC-3 prostate) | TGI (PC-3 prostate) | GI50 (COLO 205 colon) | TGI (COLO 205 colon) | GI50 (HCC-2998 colon) | TGI (HCC-2998 colon) | GI50 (SK-MEL-5 melanoma) | TGI (SK-MEL-5 melanoma) | GI50 (CAKI-1 renal) | TGI (CAKI-1 renal) | TGI (LOX IMVI melanoma) | GI50 (LOX IMVI melanoma)
CC1Cc2c(Cl)ncnc2N(C)c2ccc(Cl)cc21 (stereo not given) | 0.314 µM | 12.6 µM | 0.315 µM | 13.2 µM | 0.299 µM | 9.73 µM | 0.348 µM | > 100 µM | 0.386 µM | > 100 µM | 0.19 µM | 0.369 µM | 0.307 µM | 58.1 µM | 0.185 µM | 0.338 µM | 0.348 µM | > 100 µM |  | 
O=C(O)CCNCC(=O)O |  | > 100 µM |  | > 100 µM |  | > 100 µM |  | > 100 µM |  | > 100 µM |  | > 100 µM |  |  |  | > 100 µM |  | > 100 µM | > 100 µM | 
CCN(CC)CCCNc1nccc2c(C)c3c(cc12)c1cnccc1n3C |  | 0.378 µM |  | 3.26 µM |  | 1.52 µM |  | 2.41 µM |  |  |  | 1.4 µM |  | 0.256 µM |  | 1.82 µM |  | 1.03 µM | 0.268 µM | 
NCCSSCc1ccccc1CSSCCN |  | > 100 µM |  | > 100 µM |  | > 100 µM |  | > 100 µM |  |  |  | > 100 µM |  | > 100 µM |  | > 100 µM |  | > 100 µM | 41.8 µM | 
N#C/C(=C\c1cc(O)cc(O)c1)C(N)=O |  | > 100 µM |  | > 100 µM |  | > 100 µM |  | > 100 µM |  |  |  | > 100 µM |  | > 100 µM |  |  |  | > 100 µM |  | 
Cc1nc2sccn2c1C(=O)NN |  | > 100 µM |  | > 100 µM |  | > 100 µM |  | > 100 µM |  |  |  | > 100 µM |  | > 100 µM |  | > 100 µM |  | > 100 µM | > 100 µM | 
COc1ccc(C(c2ccccc2)(c2ccc(OC)cc2)N2C(=O)NC3C(CCCCC(=O)NCCCCCCOP(OCCC#N)N(C(C)C)C(C)C)SCC32)cc1 (stereo not given) |  | 24.9 µM |  | 35.7 µM |  | 56.5 µM |  | 29.9 µM |  |  |  | 40.7 µM |  | 31.6 µM |  | 31 µM |  |  | 24 µM | 
O=C(C(=O)c1cc2ccccc2[nH]1)c1cc2ccccc2[nH]1 |  | > 347 µM |  | > 347 µM |  | > 347 µM |  | > 347 µM |  |  |  | > 347 µM |  | > 347 µM |  | > 347 µM |  | > 347 µM | > 347 µM | 
O=C1[C@H]2ON(c3ccccc3)C(c3ccc([N+](=O)[O-])cc3)[C@H]2C(=O)N1c1ccc(Cc2ccc(N3C(=O)[C@@H]4ON(c5ccccc5)C(c5ccc([N+](=O)[O-])cc5)[C@@H]4C3=O)cc2)cc1 (stereo not given in full) |  | > 100 µM |  | > 100 µM |  | > 100 µM |  | > 100 µM |  |  |  | > 100 µM |  | > 100 µM |  | > 100 µM |  | > 100 µM | > 100 µM | 
CCC[C@H]1O[C@@H]2CC(=O)O[C@@H]2C2=C1C(=O)C=CC2=O |  | 32.1 µM |  | > 57.3 µM |  | > 62.4 µM |  | 25.7 µM |  |  |  | 9.03 µM |  | > 57 µM |  | 36 µM |  | 34.1 µM | 39.8 µM | 
O=C(O)c1cc(-c2ccc3cc4c(cc3c2)OCO4)nc2ccccc12 |  | > 100 µM |  | > 100 µM |  | 83 µM |  | > 100 µM |  | > 100 µM |  | > 100 µM |  |  |  | > 100 µM |  |  | > 100 µM | 
C=C(C)[C@H]1CC[C@@]2(C)C(C1)[C@H](C)CC[C@@H]2O (stereo not given in full) |  | > 100 µM |  | > 100 µM |  | > 100 µM |  | > 100 µM |  |  |  | > 100 µM |  | > 100 µM |  | > 100 µM |  | > 100 µM | > 100 µM | 
C=CCNC(=O)NCCCCC(NC(C)=O)C(=O)NCc1ccccc1 (stereo not given) |  |  |  | > 100 µM |  | > 100 µM |  | > 100 µM |  |  |  | > 100 µM |  | > 100 µM |  | > 100 µM |  | > 100 µM | > 100 µM | 
OCC1C(OCc2ccccc2)C(OCc2ccccc2)C(OCc2ccccc2)CN1Cc1ccccc1 (stereo not given) |  | 81.5 µM |  | > 100 µM |  | > 100 µM |  | 17.9 µM |  | 88.1 µM |  | 28.4 µM |  | > 100 µM |  |  |  | > 100 µM | > 100 µM | 
C=CSCCC(N)C(=O)O (stereo not given) |  | > 100 µM |  | > 100 µM |  | > 100 µM |  | > 100 µM |  |  |  | > 100 µM |  | > 100 µM |  | > 100 µM |  | > 100 µM | > 100 µM | 
CC(C)(O)C(O)COc1c2c(cc3oc(=O)ccc13)OCO2 (stereo not given) |  | > 100 µM |  | > 100 µM |  | > 100 µM |  | > 100 µM |  |  |  | > 100 µM |  | > 100 µM |  | > 100 µM |  | > 100 µM | > 100 µM | 
C=C[C@@H](C)[C@]1(C(=O)OC)CCCC12OCCO2 |  | > 100 µM |  | > 100 µM |  | > 100 µM |  | > 100 µM |  |  |  | > 100 µM |  | > 100 µM |  | > 100 µM |  | > 100 µM | > 100 µM | 
O=c1c2c(nc3n1CCS3)[nH]c1cc([N+](=O)[O-])ccc12 | > 100 µM | > 100 µM | > 100 µM | > 100 µM | > 100 µM | > 100 µM | > 100 µM | > 100 µM | > 100 µM | > 100 µM | 41.4 µM | > 100 µM | > 100 µM | > 100 µM |  |  | > 100 µM | > 100 µM | > 100 µM | > 100 µM
OC(CNc1ccnc2cc(Cl)ccc12)CNc1ccnc2cc(Cl)ccc12 | 1.72 µM | 3.09 µM | 2.13 µM | 4.86 µM | 2.22 µM | 6.04 µM | 5.09 µM | 28.2 µM | 1.6 µM | 3.1 µM |  |  |  |  | 1.58 µM | 3.02 µM | 31.1 µM | > 100 µM |  | 
O=C(O)CSc1n[nH]c(=O)[nH]c1=O |  | > 100 µM |  |  |  | > 100 µM |  | > 100 µM |  | > 100 µM |  | > 100 µM |  |  |  | > 100 µM |  | > 100 µM | > 100 µM | 
COc1cc(C2C(Cl)C(=O)N2NC(=O)Cc2ccccc2)cc(Br)c1O (stereo not given) |  | > 100 µM |  | > 100 µM |  | > 100 µM |  | > 100 µM |  |  |  | > 100 µM |  | > 100 µM |  | > 100 µM |  | > 100 µM | > 100 µM | 
NC(=O)NNC(=O)CCn1[nH]c(=O)c(Cl)c(Cl)c1=O |  | > 100 µM |  | > 100 µM |  | > 100 µM |  | > 100 µM |  |  |  | > 100 µM |  | > 100 µM |  | > 100 µM |  | > 100 µM | > 100 µM | 
